Source: ChEMBL document CHEMBL3286360, “Tuning the antimicrobial pharmacophore to enable discovery of short lipopeptides with multiple modes of action” (Eur J Med Chem, 2014)
Values after ≈ are worked out from the molar mass of the structure shown. Where a SMILES comes first, the peptide text is derived from it. The star is where a group is joined. Stearoyl = CCCCCCCCCCCCCCCCCC(=O)*; Myristoyl = CCCCCCCCCCCCCC(=O)*; Lauroyl = CCCCCCCCCCCC(=O)*; Decanoyl = CCCCCCCCCC(=O)*; Octanoyl = CCCCCCCC(=O)*

What was measured:
Type in all cases: functional
Staphylococcus aureus = assay: Antimicrobial activity against Staphylococcus aureus ATCC 12600 after 17 to 20 hrs by serial dilution method
Escherichia coli = assay: Antimicrobial activity against Escherichia coli ATCC 25922 after 17 to 20 hrs by serial dilution method
Candida albicans = assay: Antimicrobial activity against Candida albicans ATCC 14053 after 17 to 20 hrs by serial dilution method

Structure (SMILES): CCCCCCCCCCCCCCCCCC(=O)N[C@@H](CCCCN)C(=O)N[C@@H](Cc1c[nH]c2ccccc12)C(=O)N[C@@H](CCCCN)C(=O)N[C@@H](Cc1c[nH]c2ccccc12)C(N)=O (Stearoyl-KWKW-NH2)
- MIC (Staphylococcus aureus): > 31.2 µg/mL
- MIC (Escherichia coli): > 31.2 µg/mL
- MIC (Candida albicans): > 62.5 µg/mL

Structure (SMILES): CCCCCCCCCCCCCC(=O)N[C@@H](CCCCN)C(=O)N[C@@H](CCCCN)C(=O)N[C@@H](Cc1c[nH]c2ccccc12)C(=O)N[C@@H](Cc1c[nH]c2ccccc12)C(N)=O (Myristoyl-KKWW-NH2)
- MIC (Staphylococcus aureus): 7.8 µg/mL (≈ 9.11 µM)
- MIC (Escherichia coli): 15.6 µg/mL (≈ 18.2 µM)
- MIC (Candida albicans): 15.6 µg/mL (≈ 18.2 µM)

Structure (SMILES): CCCCCCCCCCCCCC(=O)N[C@@H](CCCNC(=N)N)C(=O)N[C@@H](Cc1c[nH]c2ccccc12)C(=O)N[C@@H](CCCNC(=N)N)C(N)=O (Myristoyl-Arg-Trp-Arg-NH2)
- MIC (Staphylococcus aureus): 15.6 µg/mL (≈ 21.5 µM)
- MIC (Escherichia coli): 15.6 µg/mL (≈ 21.5 µM)
- MIC (Candida albicans): > 62.5 µg/mL

Structure (SMILES): CCCCCCCCCC(=O)N[C@@H](CCCCN)C(=O)N[C@H](C(=O)N[C@@H](Cc1c[nH]c2ccccc12)C(=O)N[C@@H](Cc1c[nH]c2ccccc12)C(=O)N[C@@H](CCCCN)C(N)=O)[C@@H](C)CC (Decanoyl-KIWWK-NH2)
- MIC (Staphylococcus aureus): 3.9 µg/mL (≈ 4.27 µM)
- MIC (Escherichia coli): 7.8 µg/mL (≈ 8.54 µM)
- MIC (Candida albicans): 15.6 µg/mL (≈ 17.1 µM)

Structure (SMILES): CCCCCCCCCCCCCCCCCC(=O)N[C@@H](CCCCN)C(=O)N[C@H](C(=O)N[C@@H](CCCCN)C(=O)N[C@@H](CCCNC(=N)N)C(=O)N[C@@H](Cc1c[nH]c2ccccc12)C(=O)N[C@@H](Cc1c[nH]c2ccccc12)C(=O)N[C@@H](CCCNC(=N)N)C(N)=O)[C@@H](C)CC (Stearoyl-KIKRWWR-NH2)
- MIC (Staphylococcus aureus): > 31.2 µg/mL
- MIC (Escherichia coli): > 31.2 µg/mL
- MIC (Candida albicans): > 62.5 µg/mL

Structure (SMILES): CCCCCCCCCCCCCCCCCC(=O)N[C@@H](CCCCN)C(=O)N[C@H](C(=O)N[C@@H](CCCCN)C(=O)N[C@@H](CCCNC(=N)N)C(=O)N[C@@H](Cc1c[nH]c2ccccc12)C(=O)N[C@@H](CCCNC(=N)N)C(N)=O)[C@@H](C)CC (Stearoyl-KIKRWR-NH2)
- MIC (Staphylococcus aureus): > 31.2 µg/mL
- MIC (Escherichia coli): > 31.2 µg/mL
- MIC (Candida albicans): > 62.5 µg/mL

Structure (SMILES): CCCCCCCC(=O)N[C@@H](CCCNC(=N)N)C(=O)N[C@@H](CCCCN)C(=O)N[C@@H](Cc1c[nH]c2ccccc12)C(=O)N[C@@H](Cc1c[nH]c2ccccc12)C(=O)N[C@@H](CCCCN)C(N)=O (Octanoyl-RKWWK-NH2)
- MIC (Staphylococcus aureus): 15.6 µg/mL (≈ 16.8 µM)
- MIC (Escherichia coli): 62.5 µg/mL (≈ 67.3 µM)

Structure (SMILES): CCCCCCCCCCCCCCCCCC(=O)N[C@@H](CCCNC(=N)N)C(=O)N[C@H](C(=O)N[C@@H](CCCCN)C(=O)N[C@@H](Cc1c[nH]c2ccccc12)C(=O)N[C@@H](CCCCN)C(N)=O)[C@@H](C)CC (Stearoyl-RIKWK-NH2)
- MIC (Staphylococcus aureus): > 31.2 µg/mL
- MIC (Escherichia coli): > 31.2 µg/mL
- MIC (Candida albicans): > 62.5 µg/mL

Structure (SMILES): CCCCCCCCCCCCCCCCCC(=O)N[C@@H](CCCCN)C(=O)N[C@@H](CCCCN)C(=O)N[C@@H](Cc1c[nH]c2ccccc12)C(=O)N[C@@H](Cc1c[nH]c2ccccc12)C(N)=O (Stearoyl-KKWW-NH2)
- MIC (Staphylococcus aureus): > 31.2 µg/mL
- MIC (Escherichia coli): > 31.2 µg/mL
- MIC (Candida albicans): > 62.5 µg/mL

Structure (SMILES): CCCCCCCCCC(=O)N[C@@H](CCCCN)C(=O)N[C@@H](Cc1c[nH]c2ccccc12)C(=O)N[C@@H](Cc1c[nH]c2ccccc12)C(=O)N[C@@H](CCCCN)C(N)=O (Decanoyl-KWWK-NH2)
- MIC (Staphylococcus aureus): 7.8 µg/mL (≈ 9.75 µM)
- MIC (Escherichia coli): 15.6 µg/mL (≈ 19.5 µM)
- MIC (Candida albicans): 31.2 µg/mL (≈ 39 µM)

Structure (SMILES): CCCCCCCCCCCC(=O)N[C@@H](CCCNC(=N)N)C(=O)N[C@@H](CCCCN)C(=O)N[C@@H](Cc1c[nH]c2ccccc12)C(=O)N[C@@H](Cc1c[nH]c2ccccc12)C(=O)N[C@@H](CCCCN)C(N)=O (Lauroyl-RKWWK-NH2)
- MIC (Staphylococcus aureus): 7.8 µg/mL (≈ 7.92 µM)
- MIC (Escherichia coli): 7.8 µg/mL (≈ 7.92 µM)

Structure (SMILES): CCCCCCCCCCCCCC(=O)N[C@@H](CCCCN)C(=O)N[C@@H](CCCCN)C(=O)N[C@H](C(=O)N[C@@H](CCCNC(=N)N)C(=O)N[C@@H](Cc1c[nH]c2ccccc12)C(=O)N[C@@H](CCCNC(=N)N)C(N)=O)[C@@H](C)CC (Myristoyl-KKIRWR-NH2)
- MIC (Staphylococcus aureus): 3.9 µg/mL (≈ 3.56 µM)
- MIC (Escherichia coli): 7.8 µg/mL (≈ 7.12 µM)
- MIC (Candida albicans): > 62.5 µg/mL

Structure (SMILES): CCCCCCCCCCCCCC(=O)N[C@@H](CCCNC(=N)N)C(=O)N[C@H](C(=O)N[C@@H](CCCCN)C(=O)N[C@@H](Cc1c[nH]c2ccccc12)C(=O)N[C@@H](Cc1c[nH]c2ccccc12)C(=O)N[C@@H](CCCCN)C(N)=O)[C@@H](C)CC (Myristoyl-RIKWWK-NH2)
- MIC (Staphylococcus aureus): 7.8 µg/mL (≈ 6.93 µM)
- MIC (Escherichia coli): 15.6 µg/mL (≈ 13.9 µM)
- MIC (Candida albicans): > 62.5 µg/mL

Structure (SMILES): CCCCCCCCCCCCCC(=O)N[C@@H](CCCNC(=N)N)C(=O)N[C@@H](Cc1c[nH]c2ccccc12)C(=O)N[C@@H](Cc1c[nH]c2ccccc12)C(=O)N[C@@H](CCCNC(=N)N)C(N)=O (Myristoyl-RWWR-NH2)
- MIC (Staphylococcus aureus): 7.8 µg/mL (≈ 8.55 µM)
- MIC (Escherichia coli): 15.6 µg/mL (≈ 17.1 µM)
- MIC (Candida albicans): > 62.5 µg/mL

Structure (SMILES): CCCCCCCCCC(=O)N[C@@H](CCCCN)C(=O)N[C@@H](CCCCN)C(=O)N[C@@H](Cc1c[nH]c2ccccc12)C(=O)N[C@@H](Cc1c[nH]c2ccccc12)C(N)=O (Decanoyl-KKWW-NH2)
- MIC (Staphylococcus aureus): 3.9 µg/mL (≈ 4.87 µM)
- MIC (Escherichia coli): 7.8 µg/mL (≈ 9.75 µM)
- MIC (Candida albicans): 31.2 µg/mL (≈ 39 µM)

Structure (SMILES): CCCCCCCCCCCCCC(=O)N[C@@H](CCCCN)C(=O)N[C@H](C(=O)N[C@@H](Cc1c[nH]c2ccccc12)C(=O)N[C@@H](Cc1c[nH]c2ccccc12)C(=O)N[C@@H](CCCCN)C(N)=O)[C@@H](C)CC (Myristoyl-KIWWK-NH2)
- MIC (Staphylococcus aureus): 7.8 µg/mL (≈ 8.05 µM)
- MIC (Escherichia coli): 31.2 µg/mL (≈ 32.2 µM)
- MIC (Candida albicans): 31.2 µg/mL (≈ 32.2 µM)
